In patent US10517842B2, “Methods of modulating miRNA levels and compositions for use in the same” (Los Angeles Biomedical Research Institute at Harbor-UCLA …, priority 2017, dated 2019):

Experiments:
Format in all cases: cell-based, human
[1] = system: miR-29c promoter; test: Methylation-specific PCR in LSMC; details: Tranilast 200 μM, 24 hrs, Me/Me+Un, P<0.05
Procedure: (§1) LSMC at sub-confluence were treated with Tranilast (200 μM) for 24 hrs and genomic DNA was extracted and treated with bisulfite (EZ DNA Methylation Kit, Zymo Research Corporation, Irvine, Calif.). Since methylated cytosine residues remained unchanged after bisulfite conversion, this approach allows distinguishing DNA sequences which are methylated or unmethylated in specific genomic regions using sequence-specific PCR primers (Li & Dahiya, “MethPrimer: designing primers for methylation PCRs,” Bioinformatics (2002)18:1427-31). The pair of primers used to detect the methylated (Me) sequence of miR-29c promoter were 5′-[…]-3′ (SEQ ID NO:17) and 5′-[…]-3′ (SEQ ID NO:18) and for the unmethylated (Un) sequence of miR-29c promoter were 5′-[…]-3′ (SEQ ID NO:19) and 5′-[…]-3′ (SEQ ID NO:20). The pair of primers used to detect the methylated (Me) sequence of miR-200c promoter were 5′-[…]-3′ (SEQ ID NO:21) and 5′-[…]-3′ (SEQ ID NO:22), and for the unmethylated (Un) sequence of miR-200c promoter were 5′-[…]-3′ (SEQ ID NO:23) and 5′-[…]-3′ (SEQ ID NO:24). DNA amplification was carried out following manufacturer's protocol (HotStarTaq Plus PCR reagent, Qiagen, Valencia, Calif.). The PCR condition was 5 min at 95° C., followed by 40 cycles of amplification at 94° C. for 30 seconds, 30 seconds at 55° C., and 1 min at 72° C. […]

[2] = system: miR-200c promoter; test: Methylation-specific PCR in LSMC; details: Tranilast 200 μM, 24 hrs, Me/Me+Un, P<0.05
Procedure: as §1

[3] = system: TGF-β3; test: Quantitative RT-PCR, mRNA expression in LSMC; details: Tranilast 200 μM vs DMSO, 12 h to 48 h, P<0.05
Procedure: (§2) Total RNA was extracted from LSMC using RNAzol (GeneCopoeia, Rockville, Md.) and their quantity and quality was determined (ND-1000 Spectrophotometer, NanoDrop Technologies, Wilmington, Del.) as previously described (Chuang & Khorram, “miR-200c Regulates IL8 Expression by Targeting IKBKB: A Potential Mediator of Inflammation in Leiomyoma Pathogenesis,” PloS one (2014) 9:e95370). For medium miRNA extraction, 5 pg of synthetic miR-1 from Caenorhabditis elegans (cel-miR-1) was added as a spike-in control for purification efficiency. Subsequently, 2 μg or 10 ng (for miRNA) was reverse transcribed using random primers for CCND1, CDK2, COL1A1, COL3A1, TGF-β3, DNMT1 and EZH2 or specific primers for miR-29c and miR-200c according to the manufacturer's guidelines (Applied Biosystems, Carlsbad, Calif.). Quantitative RT-PCR was carried out using SYBR gene expression master mix or TaqMan miRNA expression assays (Applied Biosystems). Reactions were incubated for 10 min at 95° C. followed by 40 cycles for 15 seconds at 95° C. and 1 min at 60° C. The level of mRNAs and expression of cellular and secreted miRNA was determined using the Invitrogen StepOne System with 18S, RNU6B and cel-miR-1 used for normalization respectively. All reactions were run in triplicate and relative expression was analyzed with the comparative cycle threshold method (2^−ΔΔCT) according to the manufacturer (Applied Biosystems). Values were expressed as fold change compared to the control group.

[4] = system: CDK2; test: Quantitative RT-PCR, mRNA expression in LSMC; details: Tranilast 200 μM vs DMSO, 12 h to 48 h, P<0.05
Procedure: as §2

[5] = system: COL1; test: Quantitative RT-PCR, mRNA expression in LSMC; details: Tranilast 200 μM vs DMSO, 12 h to 48 h, P<0.05
Procedure: as §2

[6] = system: EZH2; test: Quantitative RT-PCR, mRNA expression in LSMC; details: Tranilast 200 μM vs DMSO, 12 h to 48 h, P<0.05
Procedure: as §2

[7] = system: CCND1; test: Quantitative RT-PCR, mRNA expression in LSMC; details: Tranilast 200 μM vs DMSO, 12 h to 48 h, P<0.05
Procedure: as §2

[8] = system: DNMT1; test: Quantitative RT-PCR, mRNA expression in LSMC; details: Tranilast 200 μM vs DMSO, 12 h to 48 h, P<0.05
Procedure: as §2

[9] = system: COL3A1; test: Quantitative RT-PCR, mRNA expression in LSMC; details: Tranilast 200 μM vs DMSO, 12 h to 48 h, P<0.05
Procedure: as §2

SMILES: COc1ccc(C=CC(=O)Nc2ccccc2C(=O)O)cc1OC [Tranilast, 2-[[3-(3,4-dimethoxyphenyl)-1-oxo-2-propenyl]amino]benzoic acid]
- methylation status in miR-29c promoter [1]: significantly suppressed
- methylation status in miR-200c promoter [2]: significantly suppressed
- TGF-β3 expression, mRNA level [3]: significantly inhibited
- CDK2 expression, mRNA level [4]: significantly inhibited
- COL1 expression, mRNA level [5]: significantly inhibited
- EZH2 expression, mRNA level [6]: significantly inhibited
- CCND1 expression, mRNA level [7]: significantly inhibited
- DNMT1 expression, mRNA level [8]: significantly inhibited
- COL3A1 expression, mRNA level [9]: significantly inhibited
